Consider five compounds from patent EP0377457A1, “Thiazole compounds, processes for the preparation thereof, and pharmaceutical composition comprising the same” (FUJISAWA PHARMACEUTICAL CO., LTD., priority 1989, dated 1990).

Counter-ions that a name gives are not always drawn. Like-named read-outs stand apart in the source and are kept apart here.

Data set [1] has as its system isolated rat aorta. The data set is described as follows: Relaxation effect on isolated rat aorta. As to the method: Contraction was induced by addition of KCt solution (final concentration was 30 mM).
The test system of data set [2] is platelet aggregation. The data set is described as follows: Platelet aggregation in vitro (collagen-induced, guinea-pig PRP). Type of data set: cell-based. The settings on record: Cavia porcellus, collagen (0.5 µg/ml) as inducer. As to the method:
(§1) Platelet rich plasma (PRP) which contains 6 - 7 x 10^8 platelets/ml and 3 x 10^8 platelets/ml was prepared from guinea-pig and human blood, respectively. To the each 245 µℓ of PRP, 5 µℓ of drug solution^* was added, and then stirred for 2 min at 37° C. To the solution, […] of collagen (0.5 µg/mℓ) was added as an aggregation inducer. Aggregation was measured by using an aggregometer (NKK HEMA-TRACER 1). Activities of inhibitors (test compounds) were expressed as IC50 values i.e. doses required to inhibit the platelet aggregation responses by 50%.
(§2) Drug solution^* --- Test compounds were dissolved in a mixture of ethanol, polyethylene glycol and saline (1:1:2, V/V/V) and dimethylsulfoxide for guinea-pig and human blood, respectively.

Data set [3] has as its system platelet aggregation. The data set is described as follows: Platelet aggregation in vitro (collagen-induced, human PRP). Type of data set: cell-based. The settings on record: collagen (0.5 µg/ml) as inducer. On the procedure:
as §1, §2

Data set [4] concerns human washed platelets. As to the kind of experiment: Thrombin induced aggregation in human washed platelets. Type of data set: cell-based. The settings on record: Platelet, concentration 1.0 x 10^-5 M, thrombin final conc. 0.3-0.5 U/ml. On the procedure: Blood was drawn from healthy volunteers into a plastic tube containing 1/10 volume of 3.8% sodium citrate and centrifuged at 120 g for 10 min to obtain platelet rich plasma (PRP). An equal volume of 25 mM Tris-HCI buffer (pH 7.4) containing 130 mM NaCl and 1.5 mM EDTA (buffer A) was added to the PRP, mixed and centrifuged at 1500 g for 10 min. The platelet pellet was suspended in buffer A and centrifuged at 1500 g for 5 min. The platelets were resuspended in 25 mM Tris-HCI buffer (pH 7.4) containing 130 mM NaCl and 0.3 mM EDTA and recentrifuged at 1500 g for 5 min. The platelets were finally suspended in Tyrode solution containing 0.3 % bovine serum albumin and the platelet count was adjusted to 3 x 10^8/ml. To 247.5 µl of platelet suspension, 2.5 µl of drug solution was added and incubated for 2 min at 37° C prior to addition of thrombin solution (final conc. 0.3-0.5 U/ml). Platelet aggregation was turbidometrically measured using a HEMATRACER 1.

The subject of data set [5] is platelet aggregation. The data set is described as follows: Platelet aggregation ex vivo (arachidonic acid-induced, PRP after oral administration). It counts as in vivo, guinea-pigs. The settings on record: Cavia porcellus, 6 h, dose 1.0 mg/kg oral, blood collected six hours after administration, arachidonic acid final 50 µM as inducer. On the procedure:
Male Hartley guinea-pigs weighing about 300 g were used after 24 hours fasting. Six hours after oral administration of the test compound or vehicle of test compound (control), blood was collected into a tube containing 0.1 vol. of 3.8% sodium citrate and prepared platelet rich plasma (PRP).
To the 250 µl of PRP, 5 µl of arachidonic acid (final 50 µM) was added as an aggregation inducer. Aggregation was measured by using an aggregometer (NKK HEMA-TRACER 1).

For data set [6], the target named is T1, cyclooxygenase (Ovis aries, UniProt P05979).
T1 construct: 240 µg of the microsomal enzyme; tissue Ran Biochem (Israel); host or cells: sheep seminal vesicles, microsomal fraction
T1 sequence (P05979 25-600): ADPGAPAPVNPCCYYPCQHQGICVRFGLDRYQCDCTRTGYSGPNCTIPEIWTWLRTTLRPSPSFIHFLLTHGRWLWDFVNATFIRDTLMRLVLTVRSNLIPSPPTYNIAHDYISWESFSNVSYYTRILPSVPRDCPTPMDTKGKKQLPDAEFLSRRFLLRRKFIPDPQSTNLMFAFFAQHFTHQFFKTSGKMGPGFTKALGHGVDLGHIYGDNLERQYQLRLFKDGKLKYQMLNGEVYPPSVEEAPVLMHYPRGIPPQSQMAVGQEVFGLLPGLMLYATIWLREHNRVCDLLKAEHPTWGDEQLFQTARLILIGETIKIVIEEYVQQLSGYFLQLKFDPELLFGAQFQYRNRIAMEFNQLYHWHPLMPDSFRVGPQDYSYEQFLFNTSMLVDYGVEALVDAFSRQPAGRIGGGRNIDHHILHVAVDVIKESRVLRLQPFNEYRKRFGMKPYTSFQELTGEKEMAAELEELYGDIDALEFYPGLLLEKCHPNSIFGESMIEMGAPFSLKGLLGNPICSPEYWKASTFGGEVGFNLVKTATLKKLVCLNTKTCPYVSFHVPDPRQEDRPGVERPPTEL
The data set is described as follows: Assay for cyclooxygenase inhibition. Type of data set: biochemical, sheep. As to the method: The microsomal fraction from sheep seminals vesicles was purchased from Ran Biochem (Israel). The reaction mixture consisted of 0.1 M Tris-HCI, pH 7.6, 1 mM epinephrine, 2 mM glutathione, 240 µg of the microsomal enzyme, in a total volume of 200 µl. The reaction was started by the addition of 10 µM (^14C) arachidonic acid (120 nM), and incubated at 37° C for 5 min. The reaction was stopped by the addition of 50 µl of 1 N HCI. The synthesized prostaglandins were extracted with 1.5 ml of ethylacetate. The ethyl acetate layer was dried with nitrogen gas, and dissolved in 100 µl of methanol. Ten microliters of the methanol solution were applied to a thin-layer plate (Merck, Kiesegel 60F), and developed with ethylacetate : acetate (100:2). The PGE2 fraction was scraped out, and the radioactivity was counted with 10 ml of toluene scintilator.
The activity of the test compound was expressed as IC50 value i.e. doses required to inhibit the activity of cyclooxygenase by 50%.

Data set [7] deals with SRS-A synthesis or release from peritoneal exudate cells. The data set is described as follows: Anti-SRS-A activity. It counts as cell-based, SD rats. The settings on record: rat peritoneal exudate cells; Ca++-ionophore 1 µg/ml; SRS-A read on isolated guinea pig ileum; read-out: Inhibitory Concentration IC50. As to the method: Peritoneal exudate cells were collected from glycogen-injected SD rats and adjusted to 1 x 10^7 cells/ml with Tyrode's solution. One milliliter of the cell suspension was incubated with indomethacin (10 µg/ml) and each varied concentration of the test compound for 10 minutes and, then, further incubated with Ca^++ - ionophore (A123187, 1 µg/ml) for 10 minutes. The supernatant was collected by centrifugation and the SRS-A (slow-reacting substance of anaphylaxis) activity was determined in terms of contractility of the isolated guinea pig ileum in the presence of mepyramine, atropine and methysergide.
The results were expressed in terms of the 50% inhibitory concentration to SRS-A synthesis or release from peritoneal exudate cells.

Data set [8] concerns Paw edema. As to the kind of experiment: Antiinflammatory activity (carrageenin paw edema). Type of data set: in vivo, Sprague-Dawly rats. The settings on record: 100 mg/kg orally 60 minutes before carrageenin; edema volume at 3 hours. On the procedure: Five male Sprague-Dawly rats weighing 160-180 g were used per group. Paw edema was induced by subplantar injection of 1 % carrageenin (0.1 ml/rat) into the right hind paw. The test drug was suspended in 0.5% methylcellulose and administered orally 60 minutes before phlogogen. Paw volume was measured with plethysmometer (Ugo Bazil Co., Ltd.) by water displacement immersing the paw to the lateral malleolus. The difference of paw volume before and 3 hours after the phlogogen was designated as edema volume. The data were analyzed statistically by student's t-test.

The subject of data set [9] is stomachs of the rats. The data set is described as follows: Effect on stomach of rats. Type of data set: in vivo. The settings on record: 100 mg/kg orally, rats treated as in the antiinflammatory test.
Data set [10] deals with rats. As to the kind of experiment: Acute toxicity. It counts as in vivo. The settings on record: peroral administration, 100 mg/kg.
Data set [11] in a line: Half-life period. The settings on record: rat, in vivo; rats, intravenous administration (0.32 mg/kg), (,B-phase).
The mark [12] stands for this setting: contraction induced by KCl 30 mM, maximum relaxation by papaverine, read-out: ED50 (the source's name).

For `COc1ccc(-c2nc(C(=O)N(C)C)sc2-c2ccc(OC)cc2)cc1` [Example 3, 4,5-bis(4-methoxyphenyl)-2-(N,N-dimethylcarbamoyl) thiazole], in [1] (setting [12]), the EC50 was 3e-06 M.
Turning to `CN=C(NC)Nc1nc(-c2ccc(OC)cc2)c(-c2ccc(OC)cc2)s1` [Example 21, 4,5-Bis(4-methoxyphenyl)-2-(2,3-dimethylguanidino)thiazole methanesulfonate], in [1] (setting [12]), the EC50 was 2.4e-06 M.
`COc1ccc(-c2nc(NC(=N)N(C)C)sc2-c2ccc(OC)cc2)cc1` [Example 14, 4,5-bis(4-methoxyphenyl)-2-(3,3-dimethylguanidino)thiazole hydrochloride]: the values for the IC50 in data set [2] and in data set [3] were 42 nM and 560 nM, respectively. The EC50 in data set [1] (setting [12]) was 4.8e-06 M.
One may read the inhibition as the drop in the measured response relative to a control, in per cent. Compound `COc1ccc(-c2nc(CNC(=N)N)sc2-c2ccc(OC)cc2)cc1` [Example 12, 4,5-bis(4-methoxyphenyl)-2-guanidinomethylthiazole hydrochloride] yielded an inhibition at 10 µM in data set [4] of 100%.
By half-life is commonly meant the time needed for the level to fall by half in the phase considered. Regarding `COc1ccc(-c2nc(C(=O)N3CCN(C)CC3)sc2-c2ccc(OC)cc2)cc1.Cl` [Example 1, 4,5-bis(4-methoxyphenyl)-2-(4-methylpiperazin-1-yl)carbonylthiazole hydrochloride], the inhibition at 1 mg/kg in [5] amounted to 100%. In [1] (read-out: ED50 (M)), the EC50 is 6.2e-06 M. Moreover, the IC50 came to 430 nM in data set [6] and 6.28 µg/mL in data set [7]. The “Inhibition (%) (Dose : 100 mg/kg)” value in data set [8] is on record as 36.2%. The “lesion in the stomachs” value in data set [9] is reported as “No lesion was observed”. The “acute toxicity (dead)” value in data set [10] is “the dead at dose of 100 mg/kg could not be observed”. In [11], the half-life was 4.51 h.
